The nature of this experiment: Inhibition of jack bean alpha-mannosidase. Also noted: species or system Canavalia ensiformis.

What is called Ki is the dissociation constant of the complex between target and ligand, obtained from inhibition or displacement.

In turn, `OC1[C@H](O)C2CSC(O2)[C@H]1O` (single isomer, unassigned) [THIOLEVOMANNOSAN] gave a Ki of 1380 nM. This lies in the single-digit micromolar range.
Molecule `[O-][S+]1C[C@@H]2O[C@H]1[C@@H](O)[C@H](O)[C@@H]2O` (stereo partly drawn) yielded a Ki of 385 nM.
On to `O=S1(=O)C[C@@H]2O[C@H]1[C@@H](O)[C@H](O)[C@@H]2O`, for which the Ki worked out at 350 nM.

The values above are taken from ChEMBL document CHEMBL1143740, “Conformationally locked thiosugars as potent alpha-mannosidase inhibitors: synthesis, biochemical and docking studies” (Bioorg Med Chem, 2007).
